# In US9802937B2, “Substituted pyrazolo{4,3-D}pyrimidines as kinase inhibitors” (ORIGENIS GMBH, priority 2011, dated 2017):
# Columns and labels:
# [1] = molecular target: T1, SYK kinase (Homo sapiens, UniProt P43405); assay: SYK Assay (OMNIA KINASE ASSAY, SOX peptide fluorescence); assay type: biochemical; settings: apparent Ki calculated from the IC50 using the Cheng-Prusoff equation; 1 mM ATP, 30° C.; read-out: SYK Activities: Ki
# T1 construct: purchased Invitrogen, Carlsbad
# Method in brief: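 Continuous Omnia assay: SYK phosphorylation of SOX-labelled Tyr 7 peptide (10 µM) with 1 mM ATP and 0.2 mM DTT at 30 °C. Fluorescence (ex 360/em 485 nm) read every 30 s for 30 min. Reaction velocity versus inhibitor concentration gives IC50, converted to apparent Ki by Cheng-Prusoff.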
# [2] = molecular target: LRRK2 (Homo sapiens, UniProt Q5S007); assay: LRRK2-LRRK2 G2019S-Assay (LanthaScreen Eu Kinase Binding Assay); settings: 5 nM LRRK2 or their mutants, 10 nM tracer 236, RT 1 h; read-out: LRRK2 Activities: IC50
# Chain of LRRK2 (Q5S007 970-2527 limits assumed): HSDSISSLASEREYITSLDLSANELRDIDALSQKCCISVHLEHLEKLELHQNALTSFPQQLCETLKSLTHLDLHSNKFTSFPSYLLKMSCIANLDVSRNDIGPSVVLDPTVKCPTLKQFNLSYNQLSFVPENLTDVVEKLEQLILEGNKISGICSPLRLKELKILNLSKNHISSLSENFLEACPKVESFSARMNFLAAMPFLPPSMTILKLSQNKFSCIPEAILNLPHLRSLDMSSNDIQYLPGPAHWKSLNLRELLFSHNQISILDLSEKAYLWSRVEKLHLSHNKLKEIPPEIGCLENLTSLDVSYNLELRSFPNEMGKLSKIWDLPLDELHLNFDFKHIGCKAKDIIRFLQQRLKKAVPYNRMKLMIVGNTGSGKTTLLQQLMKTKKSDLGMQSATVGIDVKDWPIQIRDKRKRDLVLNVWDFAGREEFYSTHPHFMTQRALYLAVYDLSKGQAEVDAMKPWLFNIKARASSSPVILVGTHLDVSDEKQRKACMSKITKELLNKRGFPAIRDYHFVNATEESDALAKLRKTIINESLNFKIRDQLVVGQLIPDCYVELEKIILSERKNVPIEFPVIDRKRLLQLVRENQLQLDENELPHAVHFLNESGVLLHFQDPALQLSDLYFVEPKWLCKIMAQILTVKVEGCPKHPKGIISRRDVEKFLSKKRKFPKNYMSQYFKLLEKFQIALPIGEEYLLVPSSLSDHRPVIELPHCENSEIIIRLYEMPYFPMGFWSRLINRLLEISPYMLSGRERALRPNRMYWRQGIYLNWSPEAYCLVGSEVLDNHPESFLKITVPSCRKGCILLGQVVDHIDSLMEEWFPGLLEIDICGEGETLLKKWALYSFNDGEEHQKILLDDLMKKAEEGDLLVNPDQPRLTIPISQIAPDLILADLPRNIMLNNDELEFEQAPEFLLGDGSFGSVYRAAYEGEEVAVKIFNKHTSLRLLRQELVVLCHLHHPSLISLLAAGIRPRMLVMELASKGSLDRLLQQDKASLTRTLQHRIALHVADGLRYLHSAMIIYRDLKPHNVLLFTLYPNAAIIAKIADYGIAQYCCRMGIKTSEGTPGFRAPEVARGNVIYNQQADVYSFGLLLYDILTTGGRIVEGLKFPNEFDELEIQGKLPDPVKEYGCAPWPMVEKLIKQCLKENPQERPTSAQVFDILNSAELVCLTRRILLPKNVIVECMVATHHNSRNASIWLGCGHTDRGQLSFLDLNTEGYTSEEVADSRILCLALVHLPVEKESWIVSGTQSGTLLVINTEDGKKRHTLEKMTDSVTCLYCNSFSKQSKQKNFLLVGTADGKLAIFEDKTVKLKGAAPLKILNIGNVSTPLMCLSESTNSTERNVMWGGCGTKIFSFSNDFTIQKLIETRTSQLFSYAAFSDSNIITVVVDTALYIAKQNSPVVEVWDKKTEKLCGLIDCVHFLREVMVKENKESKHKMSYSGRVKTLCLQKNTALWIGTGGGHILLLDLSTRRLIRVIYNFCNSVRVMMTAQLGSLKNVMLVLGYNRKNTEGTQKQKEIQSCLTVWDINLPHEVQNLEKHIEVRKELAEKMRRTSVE
# Method in brief: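 TR-FRET tracer-displacement binding assay with 5 nM LRRK2 or mutant, 2 nM Eu-anti-GST antibody and 10 nM tracer 236 in kinase buffer A. Incubated 1 h at RT; 665/615 nm emission ratio read (ex 340 nm). IC50 from variable-slope sigmoidal fit.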
Structure (SMILES),Ki [1],IC50 [2]
"CC1(C)CNc2cc(Nc3nc(-c4cccs4)nc4cn[nH]c34)ccc2S1 [Example #173, 2,2-dimethyl-N-(5-(thiophen-2-yl)-1H-pyrazolo[4,3-d]pyrimidin-7-yl)-3,4-dihydro-2H-benzo[b][1,4]thiazin-6-amine]",10 to 100 nM,100 to 1000 nM
"COc1ccc(Nc2nc(-c3nccs3)nc3cn[nH]c23)cc1OC [Example #185, N-(3,4-dimethoxyphenyl)-5-(thiazol-2-yl)-1H-pyrazolo[4,3-d]pyrimidin-7-amine]",10 to 100 nM,10 to 100 nM
"O=C1CCc2ccc(Nc3nc(-c4nccs4)nc4cn[nH]c34)cc2N1 [Example #186, 7-((5-(thiazol-2-yl)-1H-pyrazolo[4,3-d]pyrimidin-7-yl)amino)-3,4-dihydroquinolin-2(1H)-one]",< 10 nM,100 to 1000 nM
"COc1ccc(Nc2nc(-c3cccc(-c4nn[nH]n4)c3)nc3cn[nH]c23)cc1OC [Example #193, 5-(3-(2H-tetrazol-5-yl)phenyl)-N-(3,4-dimethoxyphenyl)-1H-pyrazolo[4,3-d]pyrimidin-7-amine]",< 10 nM,100 to 1000 nM
"O=C1CCc2ccc(Nc3nc(-c4cccc(-c5nn[nH]n5)c4)nc4cn[nH]c34)cc2N1 [Example #196, 7-((5-(3-(2H-tetrazol-5-yl)phenyl)-1H-pyrazolo[4,3-d]pyrimidin-7-yl)amino)-3,4-dihydroquinolin-2(1H)-one]",< 10 nM,100 to 1000 nM
"COc1ccc(Nc2nc(-c3cscn3)nc3cn[nH]c23)cc1OC [Example #199, N-(3,4-dimethoxyphenyl)-5-(thiazol-4-yl)-1H-pyrazolo[4,3-d]pyrimidin-7-amine]",10 to 100 nM,10 to 100 nM
"COc1ccc(Nc2nc(-c3cocn3)nc3cn[nH]c23)cc1OC [Example #202, N-(3,4-dimethoxyphenyl)-5-(oxazol-4-yl)-1H-pyrazolo[4,3-d]pyrimidin-7-amine]",10 to 100 nM,100 to 1000 nM
"COc1ccc(Nc2nc(-c3ncco3)nc3cn[nH]c23)cc1OC [Example #205, N-(3,4-dimethoxyphenyl)-5-(oxazol-2-yl)-1H-pyrazolo[4,3-d]pyrimidin-7-amine]",< 10 nM,100 to 1000 nM
"O=C1CCc2ccc(Nc3nc(-c4cscn4)nc4cn[nH]c34)cc2N1 [Example #206, 7-((5-(thiazol-4-yl)-1H-pyrazolo[4,3-d]pyrimidin-7-yl)amino)-3,4-dihydroquinolin-2(1H)-one]",< 10 nM,10 to 100 nM
"O=C1CCc2ccc(Nc3nc(-c4cocn4)nc4cn[nH]c34)cc2N1 [Example #207, 7-((5-(oxazol-4-yl)-1H-pyrazolo[4,3-d]pyrimidin-7-yl)amino)-3,4-dihydroquinolin-2(1H)-one]",< 10 nM,100 to 1000 nM
"O=C1CCc2ccc(Nc3nc(-c4ncco4)nc4cn[nH]c34)cc2N1 [Example #208, 7-((5-(oxazol-2-yl)-1H-pyrazolo[4,3-d]pyrimidin-7-yl)amino)-3,4-dihydroquinolin-2(1H)-one]",< 10 nM,100 to 1000 nM
"COc1ccc(Nc2nc(-c3ccccc3F)nc3cn[nH]c23)cc1OC [Example #232, N-(3,4-dimethoxyphenyl)-5-(2-fluorophenyl)-1H-pyrazolo[4,3-d]pyrimidin-7-amine]",< 10 nM,100 to 1000 nM
"O=C1CCc2ccc(Nc3nc(-c4cnc5cc[nH]c5c4)nc4cn[nH]c34)cc2N1 [Example #257, 7-((5-(1H-pyrrolo[3,2-b]pyridin-6-yl)-1H-pyrazolo[4,3-d]pyrimidin-7-yl)amino)-3,4-dihydroquinolin-2(1H)-one]",< 10 nM,100 to 1000 nM

# Second part, the molecule after the results:
Ki [1],IC50 [2],Structure (SMILES)
< 10 nM,100 to 1000 nM,"COc1ccc(-c2nc(Nc3ccc(N4CCN(C(C)=O)CC4)cc3)c3[nH]ncc3n2)cc1 [Example #170, 1-(4-(4-((5-(4-methoxyphenyl)-1H-pyrazolo[4,3-d]pyrimidin-7-yl)amino)phenyl)piperazin-1-yl)ethan-1-one]"
10 to 100 nM,100 to 1000 nM,"COc1ccc(-c2nc(Nc3ccc4c(c3)NC(=O)CO4)c3[nH]ncc3n2)cc1 [Example #171, 6-((5-(4-methoxyphenyl)-1H-pyrazolo[4,3-d]pyrimidin-7-yl)amino)-2H-benzo[b][1,4]oxazin-3(4H)-one]"
< 10 nM,10 to 100 nM,"COc1ccc(Nc2nc(-c3cccc(S(N)(=O)=O)c3)nc3cn[nH]c23)cc1OC [Example #183, 3-(7-((3,4-dimethoxyphenyl)amino)-1H-pyrazolo[4,3-d]pyrimidin-5-yl)benzenesulfonamide]"
< 10 nM,10 to 100 nM,"CC(=O)N1CCN(c2ccc(Nc3nc(-c4nccs4)nc4cn[nH]c34)cc2)CC1 [Example #184, 1-(4-(4-((5-(thiazol-2-yl)-1H-pyrazolo[4,3-d]pyrimidin-7-yl)amino)phenyl)piperazin-1-yl)ethan-1-one]"
< 10 nM,100 to 1000 nM,"COc1ccc(Nc2nc(-c3cccc(C(=O)O)c3)nc3cn[nH]c23)cc1OC [Example #194, 3-(7-((3,4-dimethoxyphenyl)amino)-1H-pyrazolo[4,3-d]pyrimidin-5-yl)benzoic acid]"
< 10 nM,10 to 100 nM,"O=C1CCc2ccc(Nc3nc(-c4cccc(C(=O)O)c4)nc4cn[nH]c34)cc2N1 [Example #195, 3-(7-((2-oxo-1,2,3,4-tetrahydroquinolin-7-yl)amino)-1H-pyrazolo[4,3-d]pyrimidin-5-yl)benzoic acid]"
< 10 nM,100 to 1000 nM,"CN1CCN(c2ccc(Nc3nc(-c4cscn4)nc4cn[nH]c34)cc2)CC1 [Example #197, N-(4-(4-methylpiperazin-1-yl)phenyl)-5-(thiazol-4-yl)-1H-pyrazolo[4,3-d]pyrimidin-7-amine]"
< 10 nM,100 to 1000 nM,"CC(=O)N1CCN(c2ccc(Nc3nc(-c4cscn4)nc4cn[nH]c34)cc2)CC1 [Example #198, 1-(4-(4-((5-(thiazol-4-yl)-1H-pyrazolo[4,3-d]pyrimidin-7-yl)amino)phenyl)piperazin-1-yl)ethan-1-one]"
< 10 nM,100 to 1000 nM,"CN1CCN(c2ccc(Nc3nc(-c4cocn4)nc4cn[nH]c34)cc2)CC1 [Example #200, N-(4-(4-methylpiperazin-1-yl)phenyl)-5-(oxazol-4-yl)-1H-pyrazolo[4,3-d]pyrimidin-7-amine]"
< 10 nM,100 to 1000 nM,"CC(=O)N1CCN(c2ccc(Nc3nc(-c4cocn4)nc4cn[nH]c34)cc2)CC1 [Example #201, 1-(4-(4-((5-(oxazol-4-yl)-1H-pyrazolo[4,3-d]pyrimidin-7-yl)amino)phenyl)piperazin-1-yl)ethan-1-one]"
< 10 nM,100 to 1000 nM,"CN1CCN(c2ccc(Nc3nc(-c4ncco4)nc4cn[nH]c34)cc2)CC1 [Example #203, N-(4-(4-methylpiperazin-1-yl)phenyl)-5-(oxazol-2-yl)-1H-pyrazolo[4,3-d]pyrimidin-7-amine]"
< 10 nM,100 to 1000 nM,"CC(=O)N1CCN(c2ccc(Nc3nc(-c4ncco4)nc4cn[nH]c34)cc2)CC1 [Example #204, 1-(4-(4-((5-(oxazol-2-yl)-1H-pyrazolo[4,3-d]pyrimidin-7-yl)amino)phenyl)piperazin-1-yl)ethan-1-one]"
10 to 100 nM,100 to 1000 nM,"CN1CCC(c2ccc(Nc3nc(-c4cccs4)nc4cn[nH]c34)cc2)CC1 [Example #209, N-(4-(1-methylpiperidin-4-yl)phenyl)-5-(thiophen-2-yl)-1H-pyrazolo[4,3-d]pyrimidin-7-amine]"
10 to 100 nM,100 to 1000 nM,"O=C1CCCc2ccc(Nc3nc(-c4cccc(C(=O)O)c4)nc4cn[nH]c34)cc2N1 [Example #218, 3-(7-((2-oxo-2,3,4,5-tetrahydro-1H-benzo[b]azepin-8-yl)amino)-1H-pyrazolo[4,3-d]pyrimidin-5-yl)benzoic acid]"
< 10 nM,100 to 1000 nM,"Fc1ccccc1-c1nc(Nc2ccc(N3CCOCC3)cc2)c2[nH]ncc2n1 [Example #233, 5-(2-fluorophenyl)-N-(4-morpholinophenyl)-1H-pyrazolo[4,3-d]pyrimidin-7-amine]"
< 10 nM,100 to 1000 nM,"COc1ccc(Nc2nc(-c3cccc(F)c3)nc3cn[nH]c23)cc1OC [Example #234, N-(3,4-dimethoxyphenyl)-5-(3-fluorophenyl)-1H-pyrazolo[4,3-d]pyrimidin-7-amine]"
< 10 nM,10 to 100 nM,"Fc1cccc(-c2nc(Nc3ccc(N4CCOCC4)cc3)c3[nH]ncc3n2)c1 [Example #235, 5-(3-fluorophenyl)-N-(4-morpholinophenyl)-1H-pyrazolo[4,3-d]pyrimidin-7-amine]"
< 10 nM,100 to 1000 nM,"CC(=O)N1CCN(c2ccc(Nc3nc(-c4cccc(S(N)(=O)=O)c4)nc4cn[nH]c34)cc2)CC1 [Example #237, 3-(7-((4-(4-acetylpiperazin-1-yl)phenyl)amino)-1H-pyrazolo[4,3-d]pyrimidin-5-yl)benzenesulfonamide]"
< 10 nM,100 to 1000 nM,"NS(=O)(=O)c1cccc(-c2nc(Nc3ccc(N4CCOCC4)cc3)c3[nH]ncc3n2)c1 [Example #239, 3-(7-((4-morpholinophenyl)amino)-1H-pyrazolo[4,3-d]pyrimidin-5-yl)benzenesulfonamide]"
< 10 nM,100 to 1000 nM,"CS(=O)(=O)c1cccc(-c2nc(Nc3ccc(N4CCOCC4)cc3)c3[nH]ncc3n2)c1 [Example #251, 5-(3-(methylsulfonyl)phenyl)-N-(4-morpholinophenyl)-1H-pyrazolo[4,3-d]pyrimidin-7-amine]"
